# Measurements: US8217058B2, “Substituted piperidino phenyloxazolidinones” (Wockhardt Ltd., priority 2006, dated 2012)
# Legend:
# [1] = test system: Staphylococcus epidermidis STE-118; test: MIC test (agar dilution); type: cell-based; details: Mueller Hinton agar, 24 h at 35° C.
# [2] = test system: Staphylococcus aureus MRSA-032; test: MIC test (agar dilution); type: cell-based; details: Mueller Hinton agar, 24 h at 35° C.
# Experimental: The in vitro MIC methods of test compounds were determined essentially as described in WO 95/25106, U.S. Pat. No. 5,668,286 and EP 0 750 618 B1.
# Overnight grown cultures of MRSA-032 organisms in Tryptic Soya broth were diluted in Mueller Hinton Broth to give optical density matching with MacFarland tube 0.5 standard. Cultures were further diluted 1:10 in Mueller Hinton broth. Using Denley's multipoint inoculator, 10^4 cells were deposited on Mueller Hinton agar (Difco) containing range of 2 fold dilutions of test compounds. […] MIC is defined as minimum drug concentration that inhibits test organisms.
# [3] = test system: Staphylococcus aureus Mu-50 VISA; test: MIC test (agar dilution); type: cell-based; details: Mueller Hinton agar, 24 h at 35° C.
# [4] = test system: Streptococcus pneumoniae ATCC 49619; test: MIC test (agar dilution); type: cell-based; details: Mueller Hinton agar, 24 h at 35° C.
# [5] = test system: Streptococcus group C ATCC 12388; test: MIC test (agar dilution); type: cell-based; details: Mueller Hinton agar, 24 h at 35° C.
# [6] = test system: Enterococcus faecalis Efe-406 VRE; test: MIC test (agar dilution); type: cell-based; details: Mueller Hinton agar, 24 h at 35° C.
# [7] = test system: Streptococcus agalactiae ATCC 13813; test: MIC test (agar dilution); type: cell-based; details: Mueller Hinton agar, 24 h at 35° C.
# [8] = test system: Enterococcus faecium Efa-303; test: MIC test (agar dilution); type: cell-based; details: Mueller Hinton agar, 24 h at 35° C.
# [9] = test system: Streptococcus group G ATCC 12394; test: MIC test (agar dilution); type: cell-based; details: Mueller Hinton agar, 24 h at 35° C.
# [10] = test system: Staphylococcus aureus ATCC 25923; test: MIC test (agar dilution); type: cell-based; details: Mueller Hinton agar, 24 h at 35° C.
# [11] = test system: Streptococcus group F ATCC 12392; test: MIC test (agar dilution); type: cell-based; details: Mueller Hinton agar, 24 h at 35° C.
# [12] = test system: Staphylococcus aureus STA-014; test: MIC test (agar dilution); type: cell-based; details: Mueller Hinton agar, 24 h at 35° C.
# [13] = test system: Enterococcus faecalis ATCC 29212; test: MIC test (agar dilution); type: cell-based; details: Mueller Hinton agar, 24 h at 35° C.
# [14] = test system: Staphylococcus epidermidis STE-110 MRSE; test: MIC test (agar dilution); type: cell-based; details: Mueller Hinton agar, 24 h at 35° C.
# [15] = test system: Staphylococcus aureus ATCC 29213; test: MIC test (agar dilution); type: cell-based; details: Mueller Hinton agar, 24 h at 35° C.
# [16] = test system: Staphylococcus aureus Smith; test: MIC test (agar dilution); type: cell-based; details: Mueller Hinton agar, 24 h at 35° C.
# [17] = test system: Enterococcus faecium Efa-332 VRE; test: MIC test (agar dilution); type: cell-based; details: Mueller Hinton agar, 24 h at 35° C.
# [18] = test system: Streptococcus pneumoniae ATCC 6303; test: MIC test (agar dilution); type: cell-based; details: Mueller Hinton agar, 24 h at 35° C.
# [19] = Oral pharmacokinetic study in dog, serum concentrations by HPLC; type: in vivo; design: Serum concentration: unit not given here; details: for Serum concentration: dog, 15 mg/kg p.o
# Experimental: Oral (15 mg/kg p.o) pharmacokinetic studies were done in dog. Blood samples were collected at time points of 0, 0.08 (not for oral), 0.25, 0.50, 1.0, 1.5, 2.0, 3.0, 4.0, 5.0, 6.0, 8.0, 10.0, 12.0 and 24.0 h. To facilitate IV dosing and collection of blood samples, the dogs were implanted with cannula in cephalic vein. Serum obtained from blood samples was used for HPLC-based analysis.
# Serum samples were extracted by solid phase extraction technique using Water's OASIS HLB cartridges. An HPLC-Diode array detection system was used for analysis. Prepared samples were chromatographed on a YMC-AM reversed phase column (150×4.6 mm ID; 5 μm) using an isocratic mobile phase acetate buffer (50 mmol ammonium acetate pH 6.6) acetonitrile, 66:34% v/v (for a representative compound of the invention) at a flow rate of 1 ml/min, measured at λmax 254 nm. Independently prepared analytical standards and quality control samples were analyzed with each set of unknown samples.
# [20] = test system: Streptococcus pyogenes ATCC 25147; test: MIC test (agar dilution); type: cell-based; details: Mueller Hinton agar, 24 h at 35° C.
# [21] = test system: Streptococcus group B ATCC 12386; test: MIC test (agar dilution); type: cell-based; details: Mueller Hinton agar, 24 h at 35° C.
smiles,measurement,setting,value
"COCC1(O)CCN(c2c(F)cc(N3C[C@H](CNC(C)=O)OC3=O)cc2F)CC1 [Example-11, (5S)—N-{3-[3,5-difluoro-4-(4-hydroxy-(4-methoxymethyl)-piperidin-1yl)phenyl]-2-oxo-oxazolidin-5-ylmethyl}-acetamide]",MIC,[1],1 µg/mL
same,MIC,[2],4 µg/mL
same,MIC,[3],2 µg/mL
same,MIC,[4],2 µg/mL
same,MIC,[5],2 µg/mL
same,MIC,[6],4 µg/mL
same,MIC,[7],2 µg/mL
same,MIC,[8],4 µg/mL
same,MIC,[9],2 µg/mL
same,MIC,[10],2 µg/mL
same,MIC,[11],2 µg/mL
same,MIC,[12],4 µg/mL
same,MIC,[13],2 µg/mL
same,MIC,[14],1 µg/mL
same,MIC,[15],2 µg/mL
same,MIC,[16],2 µg/mL
same,MIC,[17],2 µg/mL
same,MIC,[18],2 µg/mL
same,Serum concentrations relative to the MIC value,"[19]; dog pharmacokinetic study, up to 24 h post dosing",significantly higher serum concentrations above the MIC value up to 24 h post dosing
same,Serum concentration,[19]; time point 0.0 hr,0.0
same,Serum concentration,[19]; time point 0.25 hr,4.14
same,Serum concentration,[19]; time point 0.5 hr,5.41
same,Serum concentration,[19]; time point 1.0 hr,8.76
same,Serum concentration,[19]; time point 2.0 hr,11.42
same,Serum concentration,[19]; time point 3.0 hr,10.97
same,Serum concentration,[19]; time point 4.0 hr,10.37
same,Serum concentration,[19]; time point 5.0 hr,8.81
same,Serum concentration,[19]; time point 6.0 hr,7.28 ± 2.14
same,Serum concentration,[19]; time point 8.0 hr,5.82 ± 1.58
same,Serum concentration,[19]; time point 10.0 hr,4.50 ± 1.03
same,Serum concentration,[19]; time point 12.0 hr,3.47 ± 1.25
same,Serum concentration,[19]; time point 24.0 hr,2.19 ± 1.91
same,MIC,[20],2 µg/mL
same,MIC,[21],2 µg/mL
